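1) Cells in 96-well plates. 2) Compound, 48 h, 5 concentrations. 3) Linear interpolation between surrounding doses. 4) Unreached endpoint = highest concentration. TGI: concentration producing complete growth inhibition.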
Assays:
Assay in all cases: NCI tumour cell line growth inhibition, 48 h
[1] = system: 786-0 renal
[2] = system: A498 renal
[3] = system: A549 NSCLC
[4] = system: ACHN renal
[5] = system: BT-549 breast
[6] = system: CAKI-1 renal
[7] = system: CCRF-CEM leukemia
[8] = system: COLO 205 colon
[9] = system: DU-145 prostate
[10] = system: EKVX NSCLC
[11] = system: HCC-2998 colon
[12] = system: HCT-116 colon
[13] = system: HCT-15 colon
[14] = system: HL-60(TB) leukemia
[15] = system: HOP-62 NSCLC
[16] = system: HOP-92 NSCLC
[17] = system: HS 578T breast
[18] = system: HT29 colon
[19] = system: IGROV1 ovarian
[20] = system: K-562 leukemia
[21] = system: KM12 colon
[22] = system: LOX IMVI melanoma
[23] = system: M14 melanoma
[24] = system: MALME-3M melanoma
[25] = system: MCF7 breast
[26] = system: MDA-MB-231 breast
[27] = system: MDA-MB-435
[28] = system: MDA-N
[29] = system: MOLT-4 leukemia
[30] = system: NCI-H226 lung
[31] = system: NCI-H23 lung
[32] = system: NCI-H460 lung
[33] = system: OVCAR-3 ovarian
[34] = system: OVCAR-4 ovarian
[35] = system: OVCAR-5 ovarian
[36] = system: OVCAR-8 ovarian
[37] = system: PC-3 prostate
[38] = system: RXF 393 renal
[39] = system: SF-268 CNS
[40] = system: SF-295 CNS
[41] = system: SF-539 CNS
[42] = system: SK-MEL-2 melanoma
[43] = system: SK-MEL-28 melanoma
[44] = system: SK-MEL-5 melanoma
[45] = system: SK-OV-3 ovarian
[46] = system: SN12C renal
[47] = system: SNB-19 CNS
[48] = system: SNB-75 CNS
[49] = system: SR leukemia
[50] = system: SW-620 colon
[51] = system: T-47D breast
[52] = system: TK-10 renal
[53] = system: U251 CNS
[54] = system: UACC-62 melanoma
[55] = system: UO-31 renal
[56] = system: NCI-H522 lung
[57] = system: NCI/ADR-RES ovarian
[58] = system: RPMI-8226 leukemia
[59] = system: UACC-257 melanoma

COc1ccc(C2=Cc3nc2c(-c2ccccc2)c2ccc([nH]2)c(-c2ccccc2)c2nc(c(-c4ccccc4)c4ccc([nH]4)c3-c3ccccc3)C=C2)cc1
TGI [1]: > 100 µM | TGI [2]: > 100 µM | TGI [3]: > 100 µM | TGI [4]: > 100 µM | TGI [5]: > 100 µM | TGI [6]: > 100 µM | TGI [7]: > 100 µM | TGI [8]: > 100 µM | TGI [9]: > 100 µM | TGI [10]: > 100 µM | TGI [11]: > 100 µM | TGI [12]: > 100 µM | TGI [13]: > 100 µM | TGI [14]: > 100 µM | TGI [15]: > 100 µM | TGI [16]: > 100 µM | TGI [17]: > 100 µM | TGI [18]: > 100 µM | TGI [19]: > 100 µM | TGI [20]: > 100 µM | TGI [21]: > 100 µM | TGI [22]: > 100 µM | TGI [23]: > 100 µM | TGI [24]: > 100 µM | TGI [25]: > 100 µM | TGI [26]: > 100 µM | TGI [27]: > 100 µM | TGI [28]: > 100 µM | TGI [29]: > 100 µM | TGI [30]: > 100 µM | TGI [31]: > 100 µM | TGI [32]: > 100 µM | TGI [33]: > 100 µM | TGI [34]: > 100 µM | TGI [35]: > 100 µM | TGI [36]: > 100 µM | TGI [37]: > 100 µM | TGI [38]: > 100 µM | TGI [39]: > 100 µM | TGI [40]: > 100 µM | TGI [41]: > 100 µM | TGI [42]: > 100 µM | TGI [43]: > 100 µM | TGI [44]: > 100 µM | TGI [45]: > 100 µM | TGI [46]: > 100 µM | TGI [47]: > 100 µM | TGI [48]: > 100 µM | TGI [49]: > 100 µM | TGI [50]: > 100 µM | TGI [51]: > 100 µM | TGI [52]: > 100 µM | TGI [53]: 91.3 µM | TGI [54]: > 100 µM | TGI [55]: > 100 µM

Cc1ccc(I)cc1N=C=S
TGI [1]: 60 µM | TGI [2]: 48.8 µM | TGI [3]: 82.3 µM | TGI [4]: 54.8 µM | TGI [5]: 30.5 µM | TGI [6]: 71.2 µM | TGI [7]: 57.2 µM | TGI [8]: 34 µM | TGI [9]: 96.1 µM | TGI [10]: 63.4 µM | TGI [12]: 91.9 µM | TGI [13]: 34.8 µM | TGI [14]: 44.3 µM | TGI [15]: 59.8 µM | TGI [16]: > 100 µM | TGI [17]: 91.8 µM | TGI [18]: 53 µM | TGI [19]: > 100 µM | TGI [20]: 54.7 µM | TGI [21]: 36.9 µM | TGI [22]: 53.8 µM | TGI [23]: 38.7 µM | TGI [24]: 61.5 µM | TGI [25]: 54.4 µM | TGI [26]: 71.1 µM | TGI [27]: 73.7 µM | TGI [28]: 86.5 µM | TGI [29]: 43.8 µM | TGI [30]: 39.9 µM | TGI [31]: 42.1 µM | TGI [32]: 52.1 µM | TGI [56]: 36.6 µM | TGI [57]: 63.3 µM | TGI [33]: > 100 µM | TGI [34]: > 100 µM | TGI [35]: 50.4 µM | TGI [36]: > 100 µM | TGI [37]: 51.4 µM | TGI [58]: 54.1 µM | TGI [38]: 40.6 µM | TGI [39]: 75.8 µM | TGI [40]: 62.8 µM | TGI [41]: 35.4 µM | TGI [42]: 38.6 µM | TGI [43]: 39.2 µM | TGI [44]: 30.1 µM | TGI [45]: > 100 µM | TGI [46]: 49.3 µM | TGI [47]: 70.1 µM | TGI [48]: 52.7 µM | TGI [50]: > 100 µM | TGI [51]: 42.5 µM | TGI [52]: 88.7 µM | TGI [53]: 48.6 µM | TGI [59]: 63.9 µM | TGI [54]: 31.6 µM | TGI [55]: 33 µM
